Laboratory results: patent US20240025906A1 (NEURON23, INC., priority 2022, published 2024)
Like-named read-outs stand apart in the source and are kept apart here.

Columns and labels:
TYK2 JH2 = target: T1, TYK2 JH2 (Homo sapiens, UniProt P29597); experiment: TYK2 JH2 binding assay (KINOMEscan KdELECT competitive binding); conditions: TYK2 JH2 domain, DiscoverX KINOMEscan KdELECT (Assay A); read-out: Biochemical TYK2_DiscoverX_JH2_BND_Kd
T1 construct: purchased DiscoverX (KINOMEscan KdELECT service); host or cells: E. coli BL21-derived (T7 phage display) or HEK-293
Procedure: Assay A: TYK2 JH2 Binding Assay
Competitive binding studies using TKY2 JH2-domain fragments were conducted by DiscoverX using the KINOMEscan (KdELECT) platform. Kinase-tagged T7 phage strains were prepared in an E. coli host derived from the BL21 strain. E. coli were grown to log-phase and infected with […] and incubated with shaking at 32° C. until lysis. The lysates were centrifuged and filtered to remove cell debris. The remaining kinases were produced in HEK-293 cells and subsequently tagged with DNA for qPCR detection. Streptavidin-coated magnetic beads were treated with biotinylated small molecule ligands for 30 minutes at room temperature to generate affinity resins for kinase assays. The liganded beads were blocked with excess biotin and washed with blocking buffer (SeaBlock (Pierce), 1% BSA, 0.05% Tween 20, 1 mM DTT) to remove unbound ligand and to reduce non-specific binding. Binding reactions were assembled by combining kinases, liganded affinity beads, and test compounds in 1× binding buffer (20% SeaBlock, 0.17×PBS, 0.05% Tween 20, 6 mM DTT). Test compounds were prepared as 111× stocks in 100% DMSO. Kds were determined using an 11-point 3-fold compound dilution series with three DMSO control points. All compounds for Kd measurements are distributed by acoustic transfer (non-contact dispensing) in 100% DMSO. The compounds were then diluted directly into the assays such that the final concentration of DMSO was 0.9%. All reactions performed in polypropylene 384-well plate. Each was a final volume of 0.02 ml. The assay plates were incubated at room temperature with shaking for 1 hour and the affinity beads were washed with wash buffer (1×PBS, 0.05% Tween 20). The beads were then re-suspended in elution buffer (1×PBS, 0.05% Tween 20, 0.5 μM non-biotinylated affinity ligand) and incubated at room temperature with shaking for 30 minutes. The kinase concentration in the eluates was measured by qPCR.

[1] = test system: JAK1/TYK2 pSTAT5 (Tyr694/699) in THP-1 cell line; experiment: IFNa-stimulated JAK1/TYK2 pSTAT5 (Tyr694/699) inhibition cellular assay, AlphaLISA; format: cell-based; conditions: THP-1 cells, IFNa-stimulated, AlphaLISA (Assay B), read-out: Cellular_THP1_IFNa-pSTATS_TYK2
Procedure: Assay B: JAK1/TYK2 pSTAT5 (Tyr694/699) inhibition IC50 Cellular Assays
To evaluate the inhibition effect of compounds disclosed herein against TYK2, an IFNa-stimulated JAE1/TYK2 pSTAT5 (Tyr694/699) quantification assay was conducted in the THP-1 cell line using an AlphaLISA detection method (PerkinElmer ALSU-PST5). Compounds in DMSO were serially diluted in a 96-well plate (10 mM starting concentration, 6-fold dilutions, 8 concentrations total) prior to dispensing of 8 nL into a 384-well plate using an I.DOT non-contact liquid handler (Dispendix). Cells were collected via centrifugation at 300 ref for 5 min and resuspended in Hanks' Balanced Salt Solution (Gibco 14175-079), and 6 μl containing 2e4 cells was dispensed into each well of the 384-well plate containing test compounds or DMSO alone (final concentrations: 10000, 1666.67, 277.78, 46.30, 7.72, 1.29, 0.21 and 0.04 nM). Cells were then incubated for 1 h at 37° C. with 5% CO2 prior to the addition of 2 μL IFNa (100 ng/mL; PBL Assay Science 11175-1). Following an additional 30 min incubation at 37° C. with 5% CO2, 2 μL of 5× lysis buffer was added to each well using the I.DOT […]. Plates were sealed and incubated at RT for 10 min on a plate shaker set to 400 RPM. Cell lysates were then frozen at −80° C. before subsequent detection of pSTAT5 by AlphaLISA. At the time of the detection assay, cell lysates were thawed for 5 min at room temperature and then on a plate shaker set to 400 RPM for an additional 10 min. Following the manufacturer recommended protocol (Perkin Elmer), 5 μL of acceptor bead master mix was added to each well; plates were then resealed and incubated for 2 min at RT on a plate shaker (400 rpm) prior to an additional 2-h incubation without agitation (protected from light). Donor bead master mix, 5 uL per well, was then added to each well before 2 min of shaking (RT, 400 rpm) and 2-h incubation (RT, no shaking, protected from light). Levels of pSTAT5 protein were then measured as fluorescent signal at 615 nm with an EnVision multimode plate reader (Perkin Elmer). IC50 values were calculated in Dotmatics using the four-parameter logistic curve regression model with bottom fixed to 0 and Hill Slope fixed to −1.

T1 sequence (P29597 589-875 limits assumed): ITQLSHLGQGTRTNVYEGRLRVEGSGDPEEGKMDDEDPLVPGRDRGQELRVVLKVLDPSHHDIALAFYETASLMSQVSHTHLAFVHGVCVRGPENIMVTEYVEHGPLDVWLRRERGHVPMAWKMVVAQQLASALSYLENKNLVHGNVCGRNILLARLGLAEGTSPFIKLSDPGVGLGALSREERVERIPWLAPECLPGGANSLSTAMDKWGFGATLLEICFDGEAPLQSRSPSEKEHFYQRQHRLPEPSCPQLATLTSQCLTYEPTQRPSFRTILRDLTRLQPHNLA

Row | Structure (SMILES) | Kd (TYK2 JH2) [nM] | IC50 ([1]; Homo sapiens) [nM] | IC50 [1] [nM]
1 | CNc1ncc(-c2nc3cc(C4CCN([C@@]5(C)COC[C@H]5O)CC4)ccc3o2)c2cc(NC(=O)C3CC3)ncc12 (racemic) [Example 260, N-(5-(5-(1-(4-hydroxy-3-methyltetrahydrofuran-3-yl)piperidin-4-yl)benzo[d]oxazol-2-yl)-8-(methylamino)-2,7-naphthyridin-3-yl)cyclopropanecarboxamide] | ≤ 100 | ≤ 500 | –
2 | CNc1ncc(-c2nc3cc(N4C[C@@H](C)O[C@H](C)C4)ccc3o2)c2cc(NC(=O)C3CC3)ncc12 (racemic) [Example 316, N-(5-(5-(2,6-dimethylmorpholino)benzo[d]oxazol-2-y1)-8-(methylamino)-2,7-naphthyridin-3-yl)cyclopropanecarboxamide (trans racemate)] | ≤ 100 | ≤ 500 | –
3 | CNc1ncc(-c2nc3cc(OC)ccc3o2)c2cc(NC(=O)[C@@H]3C[C@H]3C)ncc12 (racemic) [Example 382, N-(5-(5-methoxybenzo[d]oxazol-2-yl)-8-(methylamino)-2,7-naphthyridin-3-y1)-2-methylcyclopropane-1~carboxamide] | ≤ 100 | ≤ 500 | –
4 | CNc1ncc(-c2nc3cc(OC)ccc3o2)c2cc(NC(=O)[C@@H]3C[C@@H]3C)ncc12 (racemic) [Example 383, N-(5-(5-methoxybenzo[d]oxazol-2-yl)-8-(methylamino)-2,7-naphthyridin-3-y1)-2-methylcyclopropane-1-carboxamide] | ≤ 100 | ≤ 500 | –
5 | CNc1ncc(-c2nc3cc(OC)ccc3o2)c2cc(NC(=O)[C@@H]3C[C@H]3C#N)ncc12 (racemic) [Example 385, 2-cyano-N-(5-(5-methoxybenzo[d]oxazol-2-y1)-8-(methylamino)-2,7-naphthyridin-3-yl)cyclopropane-1-carboxamide] | ≤ 100 | ≤ 500 | –
6 | CCOC(=O)[C@@H]1C[C@@H]1C(=O)Nc1cc2c(-c3nc4cc(OC)ccc4o3)cnc(NC)c2cn1 (racemic) [Example 391, ethyl 2-((5-(5-methoxybenzo[d]oxazol-2-yl)-8-(methylamino)-2,7-naphthyridin-3-yl)carbamoyl)cyclopropane-1-carboxylate] | ≤ 100 | ≤ 500 | –
7 | CNc1ncc(-c2nc3cc(OC)ccc3o2)c2cc(NC(=O)[C@@H]3C[C@@H]3C(F)F)ncc12 (racemic) [Example 393, 2-(difluoromethyl)-N-(5-(5-methoxybenzo[d]oxazol-2-yl)-8-(methylamino)-2,7-naphthyridin-3-yl)cyclopropane-1-carboxamide] | ≤ 100 | ≤ 500 | –
8 | CNc1ncc(-c2nc3cc(OC)ccc3o2)c2cc(NC(=O)[C@@H]3C[C@@H]3C(F)(F)F)ncc12 (racemic) [Example 396, N-(5-(5-methoxybenzo[d]oxazol-2-yl)-8-(methylamino)-2,7-naphthyridin-3-yl)-2-(trifluoromethyl)cyclopropane-1-carboxamide] | ≤ 100 | ≤ 500 | –
9 | CNc1ncc(-c2nc3cc(OC)ccc3o2)c2cc(NC(=O)[C@@H]3C[C@@H]3CF)ncc12 (racemic) [Example 399, 2-(fluoromethyl)-N-(5-(5-methoxybenzo[d]oxazol-2-yl)-8-(methylamino)-2,7-naphthyridin-3-yl)cyclopropane-1-carboxamide] | ≤ 100 | ≤ 500 | –
10 | CNc1ncc(-c2nc3cc(OC)ccc3o2)c2cc(NC(=O)[C@H]3C[C@H]3C(C)(C)O)ncc12 (racemic) [Example 405, 2-(2-hydroxypropan-2-yl)-N-(5-(5-methoxybenzo[d]oxazol-2-yl)-8-(methylamino)-2,7-naphthyridin-3-yl)cyclopropane-1-carboxamide] | ≤ 100 | ≤ 500 | –
11 | CNc1ncc(-c2nc3cc(OC)ccc3o2)c2cc(NC(=O)[C@H]3C[C@@H]3C(C)(C)O)ncc12 (racemic) [Example 406, 2-(2-hydroxypropan-2-yl)-N-(5-(5-methoxybenzo[d]oxazol-2-yl)-8-(methylamino)-2,7-naphthyridin-3-yl)cyclopropane-1-carboxamide] | ≤ 100 | ≤ 500 | –
12 | CNc1ncc(-c2nc3cc(N4CCO[C@@H](C)C4)ccc3o2)c2cc(NC(=O)[C@@H]3C[C@@H]3CF)ncc12 (racemic) [Example 410, 2-(fluoromethyl)-N-(8-(methylamino)-5-(5-((S)-2-methylmorpholino)benzo[d]oxazol-2-yl)-2,7-naphthyridin-3-yl)cyclopropane-1-carboxamide] | ≤ 100 | ≤ 500 | –
13 | CNc1ncc(-c2nc3cc(N4CCO[C@@H](C)C4)ccc3o2)c2cc(NC(=O)[C@@H]3C[C@@H]3C(F)F)ncc12 (racemic) [Example 413, 2-(difluoromethyl)-N-(8-(methylamino)-5-(5-((S)-2-methylmorpholino)benzo[d]oxazol-2-yl)-2,7-naphthyridin-3-yl)cyclopropane-1-carboxamide] | ≤ 100 | ≤ 500 | –
14 | CNc1ncc(-c2nc3cc(N4CCO[C@@H](C)C4)ccc3o2)c2cc(NC(=O)[C@H]3C[C@H]3C(C)(C)O)ncc12 (racemic) [Example 416, 2-(2-hydroxypropan-2-yl)-N-(8-(methylamino)-5-(5-((S)-2-methylmorpholino)benzo[d]oxazol-2-yl)-2,7-naphthyridin-3-yl)cyclopropane-1-carboxamide] | ≤ 100 | ≤ 500 | –
15 | [2H]C([2H])([2H])Nc1ncc(-c2nc3ccccc3o2)c2cc(NC(=O)C3CC3F)ncc12 (racemic) [Example 433, N-(5-(benzo[d]oxazol-2-yl)-8-((methyl-d3)amino)-2,7-naphthyridin-3-yl)-2-fluorocyclopropane-1-carboxamide] | ≤ 100 | ≤ 500 | –
16 | [2H]C([2H])([2H])Nc1ncc(-c2nc3ccccc3o2)c2cc(NC(=O)C3CC3F)ncc12 (racemic) [Example 434, N-(5-(benzo[d]oxazol-2-yl)-8-((methyl-d3)amino)-2,7-naphthyridin-3-yl)-2-fluorocyclopropane-1-carboxamide] | ≤ 100 | – | ≤ 500
17 | [2H]C([2H])([2H])Nc1ncc(-c2nc3cc(OC)ccc3o2)c2cc(NC(=O)[C@H]3C[C@H]3C)ncc12 (racemic) [Example 436, N-(5-(5-methoxybenzo[d]oxazol-2-yl)-8-((methyl-d3)amino)-2,7-naphthyridin-3-yl)-2-methylcyclopropane-1-carboxamide] | ≤ 100 | ≤ 500 | –
18 | CNc1ncc(-c2nc3ccc(N4CC(C)OC(C)C4)cn3n2)c2cc(NC(=O)C3CC3)ncc12 (racemic) [Example 480, N-(5-(6-(2,6-dimethylmorpholino)-[1,2,4]triazolo[1,5-a]pyridin-2-yl)-8-(methylamino)-2,7-naphthyridin-3-yl)cyclopropanecarboxamide (trans racemate)] | ≤ 100 | ≤ 500 | –
